# Tests used:
# [1] = Solid state stability of crystal forms; type: physicochemical; conditions: out of four crystal structures (forms 4, 5, 6, 7)
# Description: Due to the unique structure of the API material at least four different groups of crystal structures were observed (forms 4, 5, 6, 7) and analyzed by single crystal x-ray. […] Orthorhombic Form 6 consisted of a group of isostructural (1:1) solvates which accommodates solvents such as EtOAc, acetone and MEK. […] An exhaustive study of API crystallization on the feasibility of various solvents, control of polymorphs, and robustness of process concluded that the selected form could be consistently produced and kept stable in iPrOAc (or BuOAc)/Heptane (or Cyclohexane), following which a reproducible crystallization procedure in the iPrOAc/heptane solvent system was developed and implemented. This procedure, associated with the aminolysis of penultimate compound (Chemical Abstracts Systematic Name, (αS)-α-(Benzoylthio)-3,4,4-trimethyl-2,5-dioxo-1-imidazolidinebutanoyl-L-leucyl-N,3-dimethyl-L-valinamide), is successful in purging undesirable side products/impurities such as α,α′-Dithiobis[N-[1-[[[2,2-dimethyl-1-[(methylamino)carbonyl]propyl]amino]-carbonyl]-3-methylbutyl]-3,4,4-trimethyl-2,5-dioxo-1-imidazolidinebutanamide] which is the S,S′-dimer of the API. The crystallization procedure is further described in Table 1.
# [2] = Compactability (slope of tensile strength versus compression pressure) of API blend compressed on an Instron; type: physicochemical
# Procedure: In order to evaluate the compressibility and compactability of all API lots generated by modifying the crystallization process, a blend of 80% API, 19.5% microcrystalline cellulose and 0.5% magnesium stearate was prepared by mixing in a tumble mixer for 5 minutes. Each mixture was then compressed on an Instron (Universal Stress-Strain Analyzer) using a 0.5 inch diameter tooling (upper and lower punches and die) at a speed of 100 mm/min at compression forces of 5, 10, 15, 20 and 25 kN each for a replicate of three tablets. The tablet dimensions were measured using a digital Vernier calliper and the strength of the tablets were determined using an Erweka hardness tester. The volume of the tablet can be calculated from the tablet dimensions normalized for the true density of the mixture being compressed. The compressibility curves are generated by plotting the solid fraction of the tablet generated at each compression pressure versus the respective compression pressure. The area under such a curve represents the extent of volume reduction. The force required to break the tablets is normalized for the area of the tablet to obtain the tensile strength value. Slopes for profiles of tensile strength versus the compression pressure represent the compactability of the material while the area under the curve of tensile strength versus the solid fraction of the tablets represents the extent of compaction or toughness of the material.
# matrix metalloproteinase = conditions: statement referring to WO 97/12902 and U.S. Pat. No. 5,981,490; cited from earlier work
product compactability ([2]; 50-g sample recrystallized using 1% AirJet-milled seeds),product compactability ([2]; 50-g sample recrystallized using 1% ball-milled seeds),product compactability ([2]; 50-g sample recrystallized using 1% seeds crystallized from a ground seeded batch),"compactability ([2]; crystallized with 1% ground seeds, without sonication)",Structure (SMILES),stability of the crystal structure in the solid state [1],matrix metalloproteinase inhibition (matrix metalloproteinase)
–,–,–,–,"CNC(=O)[C@@H](NC(=O)[C@H](CC(C)C)NC(=O)[C@@H](S)CCN1C(=O)N(C)C(C)(C)C1=O)C(C)(C)C [Form 4, N-[(2S)-2-Mercapto-1-oxo-4-(3,4,4-trimethyl-2,5-dioxo-1-imidazolidinyl)butyl]-L-leucyl-N,3-dimethyl-L-valinamide]",did not transform/decompose to other crystalline structures in the solid state,–
4.2 kPa/MPa,5.9 Kpa/MPa,5.3 kPa/MPa,10.5 kPa/MPa,"CNC(=O)[C@@H](NC(=O)[C@H](CC(C)C)NC(=O)[C@@H](S)CCN1C(=O)N(C)C(C)(C)C1=O)C(C)(C)C [API, N-[(2S)-2-Mercapto-1-oxo-4-(3,4,4-trimethyl-2,5-dioxo-1-imidazolidinyl)butyl]-L-leucyl-N,3-dimethyl-L-valinamide]",–,effective matrix metalloproteinase inhibitor

# — patent US20040208924A1, “Pharmaceutical tablet having a high api content” (priority 2001, published 2004)
